{
  "source": "paper PMC4448990",
  "about": "(Pharmacology Research & Perspectives, 2015)",
  "key": {"[1]": {"experiment": "human plasma and CSF pharmacokinetics", "assay_type": "in vivo", "conditions": "ESL 1200 mg once daily, protein binding 30%"}, "Cannabinoid, CB1 (h)": {"target": "Cannabinoid, CB1 (h) (Homo sapiens, UniProt P21554)", "experiment": "in vitro selectivity profile", "assay_type": "binding"}, "[2]": {"test_system": "GABA A, BDZ, alpha 1 site", "experiment": "in vitro selectivity profile", "assay_type": "binding", "conditions": "eslicarbazepine 400 μmol/L"}, "[3]": {"test_system": "GABA A, BDZ, alpha 5 site", "experiment": "in vitro selectivity profile", "assay_type": "binding", "conditions": "eslicarbazepine 400 μmol/L"}, "GABA-B": {"test_system": "GABA-B", "experiment": "in vitro selectivity profile", "assay_type": "binding", "conditions": "eslicarbazepine 400 μmol/L"}, "Glutamate, AMPA site": {"test_system": "Glutamate, AMPA site", "experiment": "in vitro selectivity profile", "assay_type": "binding", "conditions": "eslicarbazepine 400 μmol/L"}, "Glutamate, mGluR1": {"test_system": "Glutamate, mGluR1", "experiment": "in vitro selectivity profile", "assay_type": "binding", "conditions": "eslicarbazepine 400 μmol/L"}, "[4]": {"test_system": "Imidazoline, I2 [central]", "experiment": "in vitro selectivity profile", "assay_type": "binding", "conditions": "eslicarbazepine 400 μmol/L"}, "Muscarinic, M4 (h)": {"target": "Muscarinic, M4 (h) (Homo sapiens, UniProt P08173)", "sequence (P08173 whole entry)": "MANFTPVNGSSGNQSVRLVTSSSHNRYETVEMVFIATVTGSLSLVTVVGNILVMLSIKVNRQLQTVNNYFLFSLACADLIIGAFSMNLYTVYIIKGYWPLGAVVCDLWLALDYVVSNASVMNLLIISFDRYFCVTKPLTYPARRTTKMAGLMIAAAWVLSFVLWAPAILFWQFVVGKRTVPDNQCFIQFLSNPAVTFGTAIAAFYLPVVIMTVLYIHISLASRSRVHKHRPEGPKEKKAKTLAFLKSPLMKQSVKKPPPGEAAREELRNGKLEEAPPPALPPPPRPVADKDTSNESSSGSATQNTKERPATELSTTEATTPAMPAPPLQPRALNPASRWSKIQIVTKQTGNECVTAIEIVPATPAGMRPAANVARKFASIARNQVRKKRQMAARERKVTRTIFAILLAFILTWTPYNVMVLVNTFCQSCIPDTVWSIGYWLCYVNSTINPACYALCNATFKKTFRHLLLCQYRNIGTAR", "experiment": "in vitro selectivity profile", "assay_type": "binding"}, "Muscarinic, M5 (h)": {"target": "Muscarinic, M5 (h) (Homo sapiens, UniProt P08912)", "sequence (P08912 whole entry)": "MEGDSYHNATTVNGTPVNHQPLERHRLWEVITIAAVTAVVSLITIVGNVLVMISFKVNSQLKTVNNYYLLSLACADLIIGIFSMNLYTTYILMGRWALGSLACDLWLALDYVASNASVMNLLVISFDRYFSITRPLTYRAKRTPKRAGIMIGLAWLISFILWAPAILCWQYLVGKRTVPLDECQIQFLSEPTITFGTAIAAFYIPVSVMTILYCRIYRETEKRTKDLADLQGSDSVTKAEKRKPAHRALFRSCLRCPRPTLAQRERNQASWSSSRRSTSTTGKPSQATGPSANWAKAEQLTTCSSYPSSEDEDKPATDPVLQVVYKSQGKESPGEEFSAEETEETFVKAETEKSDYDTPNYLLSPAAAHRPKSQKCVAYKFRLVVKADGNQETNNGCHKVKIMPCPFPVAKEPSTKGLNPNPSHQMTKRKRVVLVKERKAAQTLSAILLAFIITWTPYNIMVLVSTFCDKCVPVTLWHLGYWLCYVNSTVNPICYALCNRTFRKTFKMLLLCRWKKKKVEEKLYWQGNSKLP", "experiment": "in vitro selectivity profile", "assay_type": "binding"}, "Opioid, kappa 1": {"test_system": "Opioid, kappa 1", "experiment": "in vitro selectivity profile", "assay_type": "binding", "conditions": "eslicarbazepine 400 μmol/L"}, "[5]": {"target": "Serotonin transporter (h) (Homo sapiens, UniProt P31645)", "sequence (P31645 whole entry)": "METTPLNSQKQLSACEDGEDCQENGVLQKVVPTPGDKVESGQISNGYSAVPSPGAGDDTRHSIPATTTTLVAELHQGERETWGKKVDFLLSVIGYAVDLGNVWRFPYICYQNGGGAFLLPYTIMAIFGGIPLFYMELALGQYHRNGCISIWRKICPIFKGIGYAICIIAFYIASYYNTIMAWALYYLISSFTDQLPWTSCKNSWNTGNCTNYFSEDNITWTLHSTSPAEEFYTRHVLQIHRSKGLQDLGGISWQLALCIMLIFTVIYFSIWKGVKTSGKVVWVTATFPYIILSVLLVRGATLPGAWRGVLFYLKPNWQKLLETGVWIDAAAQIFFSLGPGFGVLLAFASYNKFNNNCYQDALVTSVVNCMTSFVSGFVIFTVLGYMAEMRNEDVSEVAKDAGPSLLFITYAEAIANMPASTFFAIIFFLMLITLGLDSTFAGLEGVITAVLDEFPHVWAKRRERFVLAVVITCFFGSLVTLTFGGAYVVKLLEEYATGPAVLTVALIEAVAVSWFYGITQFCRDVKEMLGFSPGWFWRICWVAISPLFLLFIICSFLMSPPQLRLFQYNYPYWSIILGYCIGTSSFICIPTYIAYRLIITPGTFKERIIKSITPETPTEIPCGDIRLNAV", "experiment": "in vitro selectivity profile", "assay_type": "binding"}, "Serotonin, 5HT1A (h)": {"target": "Serotonin, 5HT1A (h) (Homo sapiens, UniProt P08908)", "sequence (P08908 whole entry)": "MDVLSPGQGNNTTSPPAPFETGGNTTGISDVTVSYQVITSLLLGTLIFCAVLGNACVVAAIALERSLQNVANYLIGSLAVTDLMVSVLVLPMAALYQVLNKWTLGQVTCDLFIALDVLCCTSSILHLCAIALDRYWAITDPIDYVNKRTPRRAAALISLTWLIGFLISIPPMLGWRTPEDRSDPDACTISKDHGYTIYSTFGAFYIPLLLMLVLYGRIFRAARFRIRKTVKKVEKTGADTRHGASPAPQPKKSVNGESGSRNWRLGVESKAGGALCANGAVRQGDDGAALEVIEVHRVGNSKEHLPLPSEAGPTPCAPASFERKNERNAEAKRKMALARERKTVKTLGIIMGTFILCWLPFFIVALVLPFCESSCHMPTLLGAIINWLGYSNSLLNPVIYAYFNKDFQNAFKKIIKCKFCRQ", "experiment": "in vitro selectivity profile", "assay_type": "binding"}, "Serotonin, 5HT3": {"test_system": "Serotonin, 5HT3", "experiment": "in vitro selectivity profile", "assay_type": "binding", "conditions": "eslicarbazepine 400 μmol/L"}, "Serotonin, 5HT4": {"test_system": "Serotonin, 5HT4", "experiment": "in vitro selectivity profile", "assay_type": "binding", "conditions": "eslicarbazepine 400 μmol/L"}, "Serotonin, 5HT6 (h)": {"target": "Serotonin, 5HT6 (h) (Homo sapiens, UniProt P50406)", "sequence (P50406 whole entry)": "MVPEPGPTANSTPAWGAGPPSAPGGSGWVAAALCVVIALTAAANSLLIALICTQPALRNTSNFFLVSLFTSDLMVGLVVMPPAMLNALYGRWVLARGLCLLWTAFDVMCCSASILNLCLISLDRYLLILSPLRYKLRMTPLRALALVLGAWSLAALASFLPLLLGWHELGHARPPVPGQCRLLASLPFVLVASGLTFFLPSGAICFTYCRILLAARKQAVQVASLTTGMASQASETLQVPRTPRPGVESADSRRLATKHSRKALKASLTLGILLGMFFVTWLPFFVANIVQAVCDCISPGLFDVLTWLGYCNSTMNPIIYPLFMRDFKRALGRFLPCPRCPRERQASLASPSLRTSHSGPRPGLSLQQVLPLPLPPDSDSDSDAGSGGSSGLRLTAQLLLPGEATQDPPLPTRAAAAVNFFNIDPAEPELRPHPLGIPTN", "experiment": "in vitro selectivity profile", "assay_type": "binding"}, "Serotonin, 5HT7 (h)": {"target": "Serotonin, 5HT7 (h) (Homo sapiens, UniProt P34969)", "sequence (P34969 whole entry)": "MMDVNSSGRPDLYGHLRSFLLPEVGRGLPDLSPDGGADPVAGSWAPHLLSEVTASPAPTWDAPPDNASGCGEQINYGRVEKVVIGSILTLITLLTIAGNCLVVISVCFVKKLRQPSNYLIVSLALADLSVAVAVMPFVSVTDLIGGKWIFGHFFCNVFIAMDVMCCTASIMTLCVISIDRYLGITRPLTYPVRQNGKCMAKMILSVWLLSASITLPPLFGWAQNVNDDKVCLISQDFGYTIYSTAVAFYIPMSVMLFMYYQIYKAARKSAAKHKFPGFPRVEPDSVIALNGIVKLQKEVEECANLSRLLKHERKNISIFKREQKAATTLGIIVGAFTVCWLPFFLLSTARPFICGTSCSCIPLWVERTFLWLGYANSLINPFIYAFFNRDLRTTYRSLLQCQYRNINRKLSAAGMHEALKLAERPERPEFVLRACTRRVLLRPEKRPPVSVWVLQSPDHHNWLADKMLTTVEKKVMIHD", "experiment": "in vitro selectivity profile", "assay_type": "binding"}, "[6]": {"test_system": "Nitric oxide, NOS (neuronal-binding)", "experiment": "in vitro selectivity profile", "conditions": "eslicarbazepine 400 μmol/L"}, "Calcium channel, type N": {"test_system": "Calcium channel, type N", "experiment": "in vitro selectivity profile", "assay_type": "binding", "conditions": "eslicarbazepine 400 μmol/L"}, "[7]": {"test_system": "GABA, chloride, TBOB site", "experiment": "in vitro selectivity profile", "assay_type": "binding", "conditions": "eslicarbazepine 400 μmol/L"}, "[8]": {"test_system": "Potassium channel, ATP-sensitive", "experiment": "in vitro selectivity profile", "assay_type": "binding", "conditions": "eslicarbazepine 400 μmol/L"}, "[9]": {"test_system": "Corticotropin-releasing factor, nonselective", "experiment": "in vitro selectivity profile", "assay_type": "binding", "conditions": "eslicarbazepine 400 μmol/L"}, "Angiotensin II, AT2": {"test_system": "Angiotensin II, AT2", "experiment": "in vitro selectivity profile", "assay_type": "binding", "conditions": "eslicarbazepine 400 μmol/L"}, "[10]": {"test_system": "Cholecystokinin, CCK2 (CCKB)", "experiment": "in vitro selectivity profile", "assay_type": "binding", "conditions": "eslicarbazepine 400 μmol/L"}, "Galanin, nonselective": {"test_system": "Galanin, nonselective", "experiment": "in vitro selectivity profile", "assay_type": "binding", "conditions": "eslicarbazepine 400 μmol/L"}, "[11]": {"test_system": "Somatostatin, nonselective", "experiment": "in vitro selectivity profile", "assay_type": "binding", "conditions": "eslicarbazepine 400 μmol/L"}, "[12]": {"target": "Esterase, acetylcholine (h) (Homo sapiens, UniProt P22303)", "sequence (P22303 32-614)": "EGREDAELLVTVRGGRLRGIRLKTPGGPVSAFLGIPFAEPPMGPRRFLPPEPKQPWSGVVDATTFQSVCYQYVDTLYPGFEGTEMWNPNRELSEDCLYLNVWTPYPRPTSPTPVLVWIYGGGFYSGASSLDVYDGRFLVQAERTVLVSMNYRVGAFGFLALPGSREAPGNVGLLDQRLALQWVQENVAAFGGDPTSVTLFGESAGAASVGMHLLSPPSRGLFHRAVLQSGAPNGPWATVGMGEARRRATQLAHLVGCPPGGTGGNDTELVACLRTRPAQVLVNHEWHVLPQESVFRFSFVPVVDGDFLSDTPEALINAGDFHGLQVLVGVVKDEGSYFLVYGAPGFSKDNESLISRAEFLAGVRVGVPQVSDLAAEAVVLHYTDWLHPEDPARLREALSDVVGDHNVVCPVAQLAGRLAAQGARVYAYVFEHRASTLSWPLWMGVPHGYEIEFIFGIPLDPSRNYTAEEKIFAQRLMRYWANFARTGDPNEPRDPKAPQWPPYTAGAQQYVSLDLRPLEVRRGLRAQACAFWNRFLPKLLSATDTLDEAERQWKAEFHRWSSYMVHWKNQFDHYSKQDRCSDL", "experiment": "in vitro selectivity profile", "assay_type": "biochemical"}, "Oxidase, MAO-A, central": {"test_system": "Oxidase, MAO-A, central", "experiment": "in vitro selectivity profile", "assay_type": "biochemical", "conditions": "eslicarbazepine 400 μmol/L"}, "[13]": {"target": "Protease, caspase, CASP-2 (h) (Homo sapiens, UniProt P42575)", "sequence (P42575 170-325 limits assumed)": "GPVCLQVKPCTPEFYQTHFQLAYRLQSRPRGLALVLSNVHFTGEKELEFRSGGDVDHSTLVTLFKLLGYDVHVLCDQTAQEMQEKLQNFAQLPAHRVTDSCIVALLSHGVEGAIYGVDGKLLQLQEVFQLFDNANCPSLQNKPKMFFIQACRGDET", "sequence (P42575 348-452 limits assumed)": "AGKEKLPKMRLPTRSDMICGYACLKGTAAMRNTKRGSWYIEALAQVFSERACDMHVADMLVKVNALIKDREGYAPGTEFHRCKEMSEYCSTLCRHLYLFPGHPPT", "experiment": "in vitro selectivity profile", "assay_type": "biochemical"}, "[14]": {"target": "Protease, caspase, CASP-3 (h) (Homo sapiens, UniProt P42574)", "sequence (P42574 29-175 limits assumed)": "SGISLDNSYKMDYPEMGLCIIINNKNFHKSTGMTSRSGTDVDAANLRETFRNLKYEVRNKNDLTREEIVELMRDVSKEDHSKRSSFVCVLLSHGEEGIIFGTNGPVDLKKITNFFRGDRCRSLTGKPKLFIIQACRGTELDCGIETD", "sequence (P42574 176-277 limits assumed)": "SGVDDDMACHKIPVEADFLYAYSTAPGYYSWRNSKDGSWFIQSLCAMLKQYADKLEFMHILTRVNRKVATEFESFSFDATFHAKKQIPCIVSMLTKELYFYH", "experiment": "in vitro selectivity profile", "assay_type": "biochemical"}, "[15]": {"target": "Protease, caspase, CASP-8 (h) (Homo sapiens, UniProt Q14790)", "experiment": "in vitro selectivity profile", "assay_type": "biochemical"}, "[16]": {"test_system": "Transferase, choline acetyl", "experiment": "in vitro selectivity profile", "assay_type": "biochemical", "conditions": "eslicarbazepine 400 μmol/L"}, "Kinase, protein, Fyn (h)": {"target": "Kinase, protein, Fyn (h) (Homo sapiens, UniProt P06241)", "experiment": "in vitro selectivity profile", "assay_type": "biochemical"}, "[17]": {"target": "Kinase, protein, MAPK1 (ERK2, p42mapk) (h) (Homo sapiens, UniProt P28482)", "sequence (P28482 whole entry)": "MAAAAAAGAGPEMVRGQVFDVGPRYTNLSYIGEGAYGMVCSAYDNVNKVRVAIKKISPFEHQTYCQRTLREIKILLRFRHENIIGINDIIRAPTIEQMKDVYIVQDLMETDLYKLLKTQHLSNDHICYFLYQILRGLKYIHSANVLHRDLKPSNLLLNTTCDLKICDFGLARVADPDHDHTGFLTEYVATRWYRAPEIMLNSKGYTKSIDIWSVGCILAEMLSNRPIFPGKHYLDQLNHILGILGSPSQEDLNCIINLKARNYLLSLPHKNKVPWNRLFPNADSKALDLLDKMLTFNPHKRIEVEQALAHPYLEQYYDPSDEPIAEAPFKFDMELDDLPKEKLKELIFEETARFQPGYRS", "experiment": "in vitro selectivity profile", "assay_type": "biochemical"}, "[18]": {"target": "Kinase, protein, PKCb2 (h) (Homo sapiens, UniProt P05771)", "experiment": "in vitro selectivity profile", "assay_type": "biochemical"}, "[19]": {"target": "Kinase, protein, SGK1 (h) (Homo sapiens, UniProt O00141)", "sequence (O00141 whole entry)": "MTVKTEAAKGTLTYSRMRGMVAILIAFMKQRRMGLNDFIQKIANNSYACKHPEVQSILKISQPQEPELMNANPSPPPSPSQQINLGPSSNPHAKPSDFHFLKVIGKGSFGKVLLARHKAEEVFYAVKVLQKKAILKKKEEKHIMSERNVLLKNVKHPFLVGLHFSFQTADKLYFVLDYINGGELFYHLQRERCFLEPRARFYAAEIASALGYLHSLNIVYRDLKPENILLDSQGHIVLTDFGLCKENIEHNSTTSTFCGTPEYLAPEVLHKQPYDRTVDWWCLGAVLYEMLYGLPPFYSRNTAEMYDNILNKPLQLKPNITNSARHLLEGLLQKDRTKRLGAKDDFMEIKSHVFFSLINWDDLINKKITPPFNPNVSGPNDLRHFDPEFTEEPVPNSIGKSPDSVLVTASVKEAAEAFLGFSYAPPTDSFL", "experiment": "in vitro selectivity profile", "assay_type": "biochemical"}, "[20]": {"conditions": "eslicarbazepine; ref Bialer and Soares-da-Silva [2012]; cited from earlier work"}, "[21]": {"test_system": "persistent Na+ current (INaP)", "conditions": "300 μmol/L, ref Döser et al. [2013a], [2014], cited from earlier work"}, "transient Na+ channels": {"test_system": "transient Na+ channels", "conditions": "ref Döser et al. [2013c], [2015]; cited from earlier work"}, "[22]": {"conditions": "cited from earlier work"}},
  "data": [
    {"molecule": "NC(=O)N1c2ccccc2C[C@H](O)c2ccccc21", "note": "[eslicarbazepine]", "values": [
      {"measurement": "eslicarbazepine-free drug, peak plasma", "setting": "[1]", "value": 63, "unit": "µmol/L"},
      {"measurement": "inhibition at 400 µM", "setting": "Cannabinoid, CB1 (h)", "value": 20.4, "unit": "%"},
      {"measurement": "% inhibition", "setting": "[2]", "value": 25.92, "unit": "%"},
      {"measurement": "% inhibition", "setting": "[3]", "value": 23.75, "unit": "%"},
      {"measurement": "% inhibition", "setting": "GABA-B", "value": 11.72, "unit": "%"},
      {"measurement": "% inhibition", "setting": "Glutamate, AMPA site", "value": 0.0, "unit": "%"},
      {"measurement": "% inhibition", "setting": "Glutamate, mGluR1", "value": 1.82, "unit": "%"},
      {"measurement": "% inhibition", "setting": "[4]", "value": 17.45, "unit": "%"},
      {"measurement": "inhibition at 400 µM", "setting": "Muscarinic, M4 (h)", "value": 6.08, "unit": "%"},
      {"measurement": "inhibition at 400 µM", "setting": "Muscarinic, M5 (h)", "value": 16, "unit": "%"},
      {"measurement": "% inhibition", "setting": "Opioid, kappa 1", "value": 5.39, "unit": "%"},
      {"measurement": "inhibition at 400 µM", "setting": "[5]", "value": 0, "unit": "%"},
      {"measurement": "inhibition at 400 µM", "setting": "Serotonin, 5HT1A (h)", "value": 0.4, "unit": "%"},
      {"measurement": "% inhibition", "setting": "Serotonin, 5HT3", "value": 10.41, "unit": "%"},
      {"measurement": "% inhibition", "setting": "Serotonin, 5HT4", "value": 7.38, "unit": "%"},
      {"measurement": "inhibition at 400 µM", "setting": "Serotonin, 5HT6 (h)", "value": 5.86, "unit": "%"},
      {"measurement": "inhibition at 400 µM", "setting": "Serotonin, 5HT7 (h)", "value": 0, "unit": "%"},
      {"measurement": "% inhibition", "setting": "[6]", "value": 0.0, "unit": "%"},
      {"measurement": "% inhibition", "setting": "Calcium channel, type N", "value": 23.34, "unit": "%"},
      {"measurement": "% inhibition", "setting": "[7]", "value": 38.95, "unit": "%"},
      {"measurement": "% inhibition", "setting": "[8]", "value": 6.78, "unit": "%"},
      {"measurement": "% inhibition", "setting": "[9]", "value": 26.95, "unit": "%"},
      {"measurement": "% inhibition", "setting": "Angiotensin II, AT2", "value": 11.32, "unit": "%"},
      {"measurement": "% inhibition", "setting": "[10]", "value": 32.83, "unit": "%"},
      {"measurement": "% inhibition", "setting": "Galanin, nonselective", "value": 6.11, "unit": "%"},
      {"measurement": "% inhibition", "setting": "[11]", "value": 0.0, "unit": "%"},
      {"measurement": "inhibition at 400 µM", "setting": "[12]", "value": 0, "unit": "%"},
      {"measurement": "% inhibition", "setting": "Oxidase, MAO-A, central", "value": 15.98, "unit": "%"},
      {"measurement": "inhibition at 400 µM", "setting": "[13]", "value": 0, "unit": "%"},
      {"measurement": "inhibition at 400 µM", "setting": "[14]", "value": 0, "unit": "%"},
      {"measurement": "inhibition at 400 µM", "setting": "[15]", "value": 0, "unit": "%"},
      {"measurement": "% inhibition", "setting": "[16]", "value": 0.0, "unit": "%"},
      {"measurement": "inhibition at 400 µM", "setting": "Kinase, protein, Fyn (h)", "value": 3.58, "unit": "%"},
      {"measurement": "inhibition at 400 µM", "setting": "[17]", "value": 0, "unit": "%"},
      {"measurement": "inhibition at 400 µM", "setting": "[18]", "value": 0, "unit": "%"},
      {"measurement": "inhibition at 400 µM", "setting": "[19]", "value": 5.7, "unit": "%"},
      {"measurement": "binding to nonspecific proteins (protein binding)", "setting": "[20]", "value": "~30", "unit": "%"},
      {"measurement": "INaP in Scn1b null mice", "setting": "[21]; Scn1b null mice", "value": "did not cause a paradoxical upregulation of INaP"},
      {"measurement": "maximal INaP conductance and firing rate", "setting": "[21]; wild-type mice", "value": "significantly reduce maximal INaP conductance and efficiently decrease the firing rate"},
      {"measurement": "neuronal firing in dissociated granule cells from human hippocampus", "setting": "transient Na+ channels", "value": "significantly inhibited neuronal firing"},
      {"measurement": "CSF Cmax eslicarbazepine levels", "setting": "[22]; 1200 mg QD oral ESL, ref Nunes et al. [2013]", "value": 30, "unit": "µM"},
      {"measurement": "share of circulating active moieties after oral ESL", "setting": "[22]; humans, ref Almeida and Soares-da-Silva [2007]", "value": "~95", "unit": "%"},
      {"measurement": "peak plasma concentrations of eslicarbazepine", "setting": "[22]; oral ESL 1200 mg QD, ref Perucca et al. [2011]", "value": 90, "unit": "µmol/L"}
    ]}
  ]
}
